{"source": "patent US20260009008A1", "about": "“SYNTHETIC GENOME EDITING SYSTEM” (Pencil Biosciences Limited, priority 2021, published 2026)", "key": {"[1]": {"test_system": "molecular beacon DNA oligonucleotide (SEQ. ID. No. 60)", "assay": "Molecular beacon assay for DNA binding and cleavage", "type": "biochemical", "settings": "for emission signal of the fluorophore after a 15-minute incubation: peptide:molecular beacon 500:1, beacon 400 nM, 5 mM MnCl2; for signal / disassembly of the molecular beacon with different metal ions: zinc, manganese, calcium and magnesium chloride", "excerpt": "A molecular beacon assay was firstly used to screen each of the peptides for DNA binding and cleavage. For the purpose of these studies, the following DNA oligonucleotide containing 33 nucleotides was employed\nwhere the first six nucleotides at each terminus complement one another forming a 6 bp double stranded DNA stem.\nThe hairpin structure formed contains a fluorescein molecule as a 5′ modification (6-FAM) and a fluorescent quencher (BHQ1) as a 3′ modification. In the hairpin conformation the fluorescent signal of the molecular beacon is reduced. If a peptide binds or causes cleavage, the hairpin structure will disassemble releasing the fluorophore from the quencher.\nThe reaction conditions were chosen to reflect conditions that might be expected to strengthen the probability of DNA cleavage by each peptide. As noted above, the peptide designs were inspired by the catalytic active sites of known nucleases. Often the divalent metal of choice for such sites is Mg^2 +. […] In contrast Mn^2 + ions require less coordination sites to facilitate catalysis.\nEach reaction was carried out in a reaction buffer of 25 mM Tris-HCl (pH 7.5), 130 mM NaCl, 27μM KCl and 5 mM MnCl2. The molecular beacon was provided at a concentration of 400 nM.\nThe emission signal of the fluorophore after a 15-minute incubation was measured for each peptide mixed with the molecular beacon at a 500:1 concentration ratio."}, "[2]": {"test_system": "plasmid DNA (pBR322)", "assay": "Gel plasmid cleavage assay", "type": "biochemical", "settings": "for percentage of nicked plasmid with increasing peptide concentration: after 12 hours", "excerpt": "For this reason a further gel plasmid cleavage assay was employed to look for cleavage. Such a gel cleavage assay can differentiate between plasmid that is intact (no cleavage), nicked (ssDNA cleavage) and linearised (dsDNA cleavage) as the three plasmid species will migrate differently on an agarose gel. Intact plasmids have a supercoiled structure and therefore can migrate easily through an agarose gel whereas a ssDNA cleavage on the plasmid will relax this supercoiled structure. This produces a relaxed circle/nicked structure that migrates more slowly through the pores. The dsDNA cleavage of a plasmid produces a linearised plasmid. The linear structure migrates faster than a relaxed circular structure although not as fast as the supercoiled structure.\nTo optimize the assay, plasmid DNA (pBR322) was mixed with increasing concentrations of the peptide bL or bN, in the presence of Zn^2 + ions. […] The percentage of nicked species increases with greater peptide concentration for both bL and bN. […] An increasing proportion of the plasmid DNA is also observed in the wells of the gel. This DNA can be binding to the peptide causing a complex that is unable to migrate into the gel."}, "[3]": {"test_system": "PDS1 dsDNA bait (GAGGTC)", "assay": "ELISA / bio-panning of M13 phage display peptides on biotinylated dsDNA bait PDS1", "type": "binding", "settings": "peptide displayed in the phage library", "excerpt": "(§1) As noted above, a commercially available M13 phage display library was employed (New England Biolabs, catalogue #E8111L) which contains around 1×10^912mer peptides fused to the N-terminus of the phage minor coat protein III. Two different 6 nt dsDNA baits were employed with a biotin tag immobilized on a streptavidin-coated 96 well plate as specified in Table 1 below:\n(§2) ELISA assays were used to assess binding of peptides of the phage display library to the PDS1 and PDS2 dsDNA baits using an anti-M13 phage antibody labelled with horseradish peroxidase (HRP). After three rounds of bio-panning and sequence analysis of the bound peptides in the library, two 12 mer peptide sequences were selected, chemically synthesised, and modified as set out in Table 2 below.\n(§3) • 1. Blocking step of the streptavidin coated 96 well plate (Fisher Scientific, UK) with the Blocking Buffer (0.1 M NaHCO3 (pH 8.6), 5 mg/ml BSA, filter sterilised and stored at 4° C.). • 2. 6 rounds of wash with 1× TBST after discarding the blocking solution. • 3. Precomplexing step (this step can be done at the same time as the blocking step, mentioned above), where the amplified phage library was incubated with each of the dsDNA baits in separate reactions. Each bait includes annealed double stranded DNA oligos (dsDNA), containing one of the PDS sites. […]"}, "[4]": {"test_system": "nanoluciferase expression cassette with PDS variants in the target region", "assay": "Nanoluciferase detection assay for binding ability of the DBD to variant PDSs (ApGet-i)", "type": "cell-based", "settings": "EPI300 cells, ApGet-i induced with ATC, nanoluciferase induced with IPTG", "excerpt": "As noted above the DBD of sequence SLETWLKHREKDGGS (SEQ. ID. No. 4) was selected on the basis of binding affinity for the dsDNA sequence represented by the 5′ to 3′ sequence 5′GAGGTC3′ (the initially chosen predetermined sequence (PDS) for use in targeting). A further study was undertaken to determine the importance of various nucleotides in this PDS for binding to the same DBD using a nanoluciferase detection assay (Promega). This was on the basis of the prior observation as noted above that expression of ApGet-i in bacteria can suppress transcription of sequences containing target sites for the NAC plus the PDS used for DBD selection.\nA nanoluciferase expression cassette was cloned in a second plasmid vector (the Detector plasmid) with the PDS as originally used for DBD selection and variants of that PDS in the target region as shown in FIG. 22.\nBacterial cells were transformed with the Editor plasmid in which ApGet-i expression was under the control of a TetR promoter. The NAC was also expressed by the same plasmid under the control of a constitutive J23119 promoter. The Detector and Editor plasmids were provided with different resistance genes and compatible origins of replication. […] The signal of the nanoluciferase was monitored on the microplate reader and normalized to take account of the degree of bacterial growth in the culture. […]"}, "[5]": {"assay": "Observation of peptide aggregation / precipitation", "type": "physicochemical"}, "[6]": {"test_system": "PDS2 dsDNA bait (ACGGGT)", "assay": "ELISA / bio-panning of M13 phage display peptides on biotinylated dsDNA bait PDS2", "type": "binding", "settings": "peptide displayed in the phage library", "excerpt": "as §1, §2, §3"}, "[7]": {"test_system": "extended dsDNA containing the cognate PDS (PDS1)", "assay": "T7E1 cleavage assay for peptide binding and unwinding of dsDNA target", "type": "biochemical", "settings": "chemically synthesized peptides, PDS1 as cognate PDS", "excerpt": "FIG. 4: Cleavage assay results using T7E1 enzyme for binding of the chemically synthesized peptides 1, 2, 3 and 4 (Table 2 in Example 1) to the two 6 nt sequences as above designated PDS1 and PDS2 in a dsDNA target and unwinding of the dsDNA target.\nIt was reasoned that the phage clones with the selected DNA binding peptides will alter a DNA duplex in a region presenting the cognate PDS, which may result in recognition by DNA nucleases, such as T7E1, commonly used to detect insertions or deletions (indels), which result from the activity of genome editing enzymes, such as Cas9, Cas12a etc. Results of such cleavage assays for destabilized DNA duplex using the extended dsDNA baits as set out in Table 3 below and T7E1 and Surveyor enzymes support this hypothesis (see FIGS. 3a-c), i.e. that binding of the clones presenting the selected fused peptides to dsDNA destabilizes the structure of the DNA duplex in a manner facilitating accessibility for RNA hybridization.\nThe modified peptides as set out in Table 2 were used to test the sequences for use as DNA-binding domains without M13 phage connection. The modifications included amidation and acetylation at the […] to reflect natural peptide modifications to improve peptide stability and prevent degradation. In the case of Peptides 1 and 3, an additional C-terminal linker (GGS) was provided as noted above. […]"}, "[8]": {"test_system": "PDS1 in an extended dsDNA target", "assay": "FRET experiment for binding/unwinding of dsDNA and RNA hybridization", "type": "biochemical", "settings": "FAM-tagged targeting RNA, target DNA tagged with Cy5 or Texas Red", "method": "FIG. 5: Schematic diagram illustrating a FRET experiment to assess specific binding and unwinding of a dsDNA target by peptide binding to a PDS with RNA hybridization. Results are also shown for binding of Peptide 1 (SEQ. ID. No. 37 as shown in Table 2) to PDS1 having the 5′ to 3′ sequence GAGGTC. The FRET signal was determined upon incubation of the PDS1 containing dsDNA targets with 5′ FAM-RNA with (2, 4) or without peptide (1, 3).\nA FRET experiment was carried out to assess the binding and unwinding activity of Peptide 1 with ability to facilitate RNA hybridization when presented with PDS1 in an extended dsDNA target as shown schematically in FIG. 5. It was hypothesized that, upon binding, Peptide 1 will cause some transient unwinding of the dsDNA which will facilitate binding of a targeting RNA. The fluorescent donor, 6-carboxyfluorescein (FAM), was used to tag an appropriate targeting RNA with a 15 bp complementary sequence. Target DNA was tagged with the fluorescent acceptor Cy5 at a 3′ end or Texas Red at a 5′-end."}}, "note": "Entries after “also recorded” stand apart in the source; their conditions may differ.", "data": [{"substance": "LDLDLKLHL [bL]", "values": [{"measurement": "emission signal of the fluorophore after a 15-minute incubation", "setting": "[1]", "result": "relatively high emission signal"}, {"measurement": "signal / disassembly of the molecular beacon with different metal ions", "setting": "[1]", "result": "more extensive in the presence of zinc chloride ions"}, {"measurement": "cleavage of plasmid", "setting": "[2]", "result": "some cleavage"}, {"measurement": "amount of nicked plasmid at higher peptide concentrations (greater than 600 μM)", "setting": "[2]; Zn2+ ions, 12 hours", "result": "continues to increase"}, {"measurement": "percentage of nicked plasmid with increasing peptide concentration", "setting": "[2]; Zn2+ ions", "result": "increase in the percentage of nicked plasmid"}]}, {"substance": "IHIDISI [bN]", "values": [{"measurement": "signal with increasing peptide concentration, Zn2+ ions", "setting": "[1]; Zn2+ ions, peptide 0-800 μM", "result": "still increase up to 800μM"}, {"measurement": "signal without any metal ions", "setting": "[1]; no metal", "result": "high signal"}, {"measurement": "signal for the disassembly of the molecular beacon with increasing peptide concentration", "setting": "[1]; peptide 0-800 μM, Mn2+ or Zn2+", "result": "general increase"}, {"measurement": "signal with Mn2+ ions compared with Mg2+ ions", "setting": "[1]; peptide concentration 400 μM, beacon 400 nM", "result": "greater than the bN peptide with Mg^2 + ions"}, {"measurement": "emission signal of the fluorophore after a 15-minute incubation", "setting": "[1]", "result": "relatively high emission signal"}, {"measurement": "signal / disassembly of the molecular beacon with different metal ions", "setting": "[1]", "result": "high increase in the signal regardless of the metal; also recorded: greater with Mn^2 + ions"}, {"measurement": "cleavage of plasmid", "setting": "[2]", "result": "some cleavage"}, {"measurement": "percentage of nicked plasmid with increasing peptide concentration", "setting": "[2]; Zn2+ ions", "result": "increase in the percentage of nicked plasmid"}]}, {"substance": "SLETWLKHREKD [Peptide 2]", "values": [{"measurement": "binding ability for the PDS1 dsDNA bait", "setting": "[3]", "result": "high binding ability"}]}, {"substance": "SLETWLKHREKDGGS (DBD) [DBD of SEQ. ID. No. 4]", "values": [{"measurement": "inhibition of luciferase expression with different PDSs", "setting": "[4]; listed as DBD", "result": "effective in inhibiting expression of the luciferase"}, {"measurement": "inhibition of luciferase expression with different PDSs", "setting": "[4]; listed as DBD of SEQ. ID no. 4", "result": "shown to be effective"}]}, {"substance": "IEIDIHI [ibD]", "values": [{"measurement": "aggregation / precipitation of peptide", "setting": "[5]", "result": "no observable aggregates even at the highest tested concentration"}]}, {"substance": "AGDWESWTNGSW [Peptide 4]", "values": [{"measurement": "binding to the PDS2 dsDNA bait", "setting": "[6]", "result": "binding to the PDS2 dsDNA bait"}]}, {"substance": "SLETWLKHREKDGGS [Peptide 1]", "values": [{"measurement": "binding and non-duplex structure formation (T7E1 cleavage)", "setting": "[7]", "result": "best candidate to be a DNA-binding domain"}, {"measurement": "RNA-DNA hybridisation reflected by FRET signal", "setting": "[8]", "result": "shown to be facilitated; also recorded: increase of FRET signal"}]}]}
